SMILES strings stand for the structures.

For test [1], the system named is LDLR protein levels in HepG2 cells. Briefly: Western blot analysis of relative LDLR protein levels in HepG2 cells after treatment. The class given is cell-based, human. The following applies: HepG2 cells incubated overnight with compound, 0.2 μM to 20 μM. As for the experimental part:
Cell culture, treatments and cell viability assay. For phenotypic screening of PCSK9 modulators and/or LDLR small molecule inducers, human HepG2 cells were incubated overnight in conditioned media containing chemical compounds resuspended in DMSO at concentration ranging from 0.2 μM to 20 μM. […] Following incubation, media have been replaced and cells incubated for 4 h with 100 μL of phenol red-free DMEM containing 0.5 mg/mL of MTT (3-[4,5-dimethylthiazol-2-yl]-2,5-diphenyltetrazolium bromide; thiazolyl blue; catalog no. M5655, Sigma-Aldrich), following manufacturer's instructions.
Western Blot Analysis, Immunocytochemistry and LDLR Activity Assay. Following incubation, cells were washed three times in phosphate-buffered saline (PBS) and lysed in radioimmune precipitation assay buffer (50 mM Tris/HCl, pH 8.0, 1% (v/v) Nonidet P-40, 0.5% sodium deoxycholate, 150 mM NaCl, and 0.1% (v/v) SDS) supplemented with a complete protease inhibitor mixture (catalog no. 11 697 498 001, Roche Applied Science). Proteins were separated by SDS polyacrylamide gel electrophoresis, blotted on nitrocellulose membranes (Bio-Rad), blocked incubated with indicated antibodies as described (Poirier S, et al., Cell Rep, 2015). For immunocytochemistry analysis, cells were permeabilized or not with 0.1% Triton X-100/PBS for 10 min, and incubated with 150 mM glycine, blocked and incubated with indicated primary and secondary antibodies. Immunofluorescence analyses were performed with an Olympus FluoView FV10i confocal microscope (Poirier et al., Cell Rep. 2015; 13(10):2064-2071). For LDLR activity assay, HepG2 cells were incubated overnight without or with a given compound in the presence of 5 μg/ml fluorescent labelled DiI-LDL (Alfa Aesar, Cat. #J65330) and co-stained for LDLR if applicable, as described (Poirier et al., J Biol Chem. 2009; 284(42):28856-28864). Immunofluorescence analyses were performed with an Olympus FluoView FV10i confocal microscope.
Background: A western blot detects proteins with antibodies after separation by electrophoresis.

The target in test [2] is Biotinylated PCSK9 (Homo sapiens (Human), UniProt Q8NBP7). The test is described as follows: Binding affinity of SHIM compounds to PCSK9 by surface plasmon resonance spectroscopy (Biacore T200). Conditions: SPR, range tested 0.5-10 uM, 1:1 Langmuir model, NB = no binding detected in the tested range; for Kd: read-out: KD - equilibrium dissociation constant; for kon: read-out: ka - association rate constant; for koff: read-out: kd - dissociation rate constant. As for the experimental part:
Studies of SHIM compounds—PCSK9 interactions. […] Biotinylated PCSK9 (ACRO Biosystems) at 1 μg/mL has been captured on a chip on which streptavidin has been immobilized with amine-directed chemistry according to the manufacturer's instructions (6000 RU) to a density of 6000 RU in PBS-P ([…], 0.005% Tween 20, pH7.4) buffer with 1% DMSO. SHIMs at 10, 3.3, 1.1, 0.33 and 0.11 uM were injected at 30 uL/min. […] Double reference method of analysis was used with the reference channel containing a reference biotinylated protein captured at 6000 RU.
In general terms: In SPR one partner is held on a chip, and binding of the other changes the refractive index at the surface.

Biotinylated PCSK9, sequence (Q8NBP7 153-692): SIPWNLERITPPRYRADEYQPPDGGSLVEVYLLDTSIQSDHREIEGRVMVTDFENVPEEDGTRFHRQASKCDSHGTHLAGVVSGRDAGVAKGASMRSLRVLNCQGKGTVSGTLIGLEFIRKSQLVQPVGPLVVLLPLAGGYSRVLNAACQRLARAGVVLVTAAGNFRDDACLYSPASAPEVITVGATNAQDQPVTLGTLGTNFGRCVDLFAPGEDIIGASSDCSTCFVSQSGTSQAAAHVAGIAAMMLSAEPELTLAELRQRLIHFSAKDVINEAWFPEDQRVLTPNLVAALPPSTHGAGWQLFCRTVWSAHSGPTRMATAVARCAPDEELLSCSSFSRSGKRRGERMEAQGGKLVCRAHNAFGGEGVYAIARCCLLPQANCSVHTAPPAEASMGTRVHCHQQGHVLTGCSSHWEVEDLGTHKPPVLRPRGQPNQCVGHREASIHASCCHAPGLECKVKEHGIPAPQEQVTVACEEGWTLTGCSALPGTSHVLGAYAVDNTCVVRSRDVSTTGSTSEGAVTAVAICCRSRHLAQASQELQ

For orientation: Kd means a measure of binding affinity in units of concentration. With `C[C@@]1(c2ccc3ccccc3c2)NC(=O)N(CC(=O)N2CCC(C(=O)N3CCCCCC3)CC2)C1=O` (stereo in doubt) [Compound 16, 3-{2-[4-(azepane-1-carbonyl)piperidin-1-yl]-2-oxoethyl}-5-methyl-5-(naphthalen-2-yl)imidazolidine-2,4-dione], in test [1], the “LDLR Fold (relative LDLR protein levels)” value is 2.1 ± 1.2 Fold. In test [2], the dissociation constant Kd is 3.88 µM, the kon is 22800 M⁻¹ s⁻¹ and the koff stood at 0.09 s⁻¹. Regarding `Cc1nn(CC(=O)N2CCc3c([nH]c4ccccc34)[C@H]2c2ccccn2)c(=O)c2ccccc12` [Compound 2, 4-methyl-2-{2-oxo-2-[1-(2-pyridinyl)-1,3,4,9-tetrahydro-2H-beta-carbolin-2-yl]ethyl}-1(2H)-phthalazinone], the “LDLR Fold (relative LDLR protein levels)” value in test [1] amounted to 1.0 ± 0.5 Fold.

`O=C(Cn1[nH]c(=O)c2ccccc2c1=O)Nc1ccc(N2C(=O)c3cccc4cccc(c34)C2=O)cc1` [Compound 4, 2-(1,4-dioxo-1,2,3,4-tetrahydrophthalazin-2-yl)-N-(4-{2,4-dioxo-3-azatricyclo[7.3.1.0^{5,13}]trideca-1(13),5,7,9,11-pentaen-3-yl}phenyl)acetamide]: the “LDLR Fold (relative LDLR protein levels)” value in test [1] was determined as 1.6 ± 0.2 Fold. As for `CC(=O)N1CCC2(CC1)CC(=O)c1ccc(OCC(=O)N3CCc4ccccc43)cc1O2` [Compound 6, 1′-acetyl-7-[2-(2,3-dihydro-1H-indol-1-yl)-2-oxoethoxy]-3,4-dihydrospiro[1-benzopyran-2,4′-piperidin]-4-one], the “LDLR Fold (relative LDLR protein levels)” value in test [1] came out at 0.8 ± 0.3 Fold. Consider `O=C(c1cn(CCN2CCCCC2)nn1)N1CCC2(C=Cc3ccccc32)CC1` [Compound 9, 1′-{1-[2-(piperidin-1-yl)ethyl]-1H-1,2,3-triazole-4-carbonyl}spiro[indene-1,4′-piperidine]], for which the “LDLR Fold (relative LDLR protein levels)” value in test [1] is recorded as 0.4 ± 0.1 Fold. As to `CC1(c2ccc3ccccc3c2)NC(=O)N(CC(=O)N2CCCCC2c2nc3ccccc3s2)C1=O` (stereo not shown) [Compound 11, 3-{2-[2-(1,3-benzothiazol-2-yl)piperidin-1-yl]-2-oxoethyl}-5-methyl-5-(naphthalen-2-yl)imidazolidine-2,4-dione], the “LDLR Fold (relative LDLR protein levels)” value in test [1] is given as 1.5 ± 0.4 Fold. `CC1(c2ccc3ccccc3c2)NC(=O)N(CC(=O)N2CCCC(c3nc4ccccc4s3)C2)C1=O` (stereo not shown) [Compound 12, 3-{2-[3-(1,3-benzothiazol-2-yl)piperidin-1-yl]-2-oxoethyl}-5-methyl-5-(naphthalen-2-yl)imidazolidine-2,4-dione]: in test [1], the “LDLR Fold (relative LDLR protein levels)” value was determined as 1.8 ± 0.6 Fold. With `CC1(c2ccc3ccccc3c2)NC(=O)N(CC(=O)N2CCC(c3nc4ccccc4s3)CC2)C1=O` (stereo not shown) [Compound 13, 3-{2-[4-(1,3-benzothiazol-2-yl)piperidin-1-yl]-2-oxoethyl}-5-methyl-5-(naphthalen-2-yl)imidazolidine-2,4-dione], the “LDLR Fold (relative LDLR protein levels)” value in test [1] stood at 1.5 ± 0.7 Fold. With `CC1(c2ccc3ccccc3c2)NC(=O)N(CC(=O)N2CCC(C(=O)Nc3ccccc3)CC2)C1=O` (stereo not shown) [Compound 14, 1-[2-[4-methyl-4-(2-naphthyl)-2,5-dioxo-imidazolidin-1-yl]acetyl]-N-phenyl-piperidine-4-carboxamide], in test [1], the “LDLR Fold (relative LDLR protein levels)” value is 2.0 ± 0.7 Fold. Moreover, in test [2], the Kd was determined as 13.8 µM, the kon is 14500 M⁻¹ s⁻¹ and the koff was 0.19 s⁻¹. As for `Cc1ccc(-c2cc(C(=O)N3CCc4c([nH]c5ccccc45)C3c3ccccn3)[nH]n2)s1` (stereo not drawn) [Compound 25, 2-{[3-(5-methyl-2-thienyl)-1H-pyrazol-5-yl]carbonyl}-1-(2-pyridinyl)-2,3,4,9-tetrahydro-1H-beta-carboline], the “LDLR Fold (relative LDLR protein levels)” value in test [1] came to 1.1 Fold. Take `Cc1cccc(C2c3[nH]c4ccccc4c3CCN2C(=O)CCCN2CCCCC2=O)n1` (stereo not shown) [Compound 28, 1-{4-[1-(6-methylpyridin-2-yl)-1H,2H,3H,4H,9H-pyrido[3,4-b]indol-2-yl]-4-oxobutyl}piperidin-2-one]: the “LDLR Fold (relative LDLR protein levels)” value in test [1] was found to be 1.0 Fold. On to `COc1ccccc1C1N=C(Nc2cccc(C)c2C)N=C2N=C(C)C=C(O)N21` (stereo not shown) [Compound 32, 2-[(2,3-dimethylphenyl)amino]-4-(2-methoxyphenyl)-8-methyl-4H-pyrimido[1,2-a][1,3,5]triazin-6-ol], for which the “LDLR Fold (relative LDLR protein levels)” value in test [1] came out at 0.8 Fold. Take `COc1ccccc1[C@H]1N=C(N2CCN(c3cccc(Cl)c3)CC2)N=C2N=C(C)C=C(O)N21` [Compound 33, 2-[4-(3-chlorophenyl)piperazin-1-yl]-4-(2-methoxyphenyl)-8-methyl-1,4-dihydro-6H-pyrimido[1,2-a][1,3,5]triazin-6-ol]: in test [1], the “LDLR Fold (relative LDLR protein levels)” value is 1.0 Fold.

Consider `O=C(CN1CCN(c2nnc(-c3ccccc3)c3ccccc23)CC1)N1CCCC1` [Compound 35, 2-[4-(4-phenylphthalazin-1-yl)piperazin-1-yl]-1-(pyrrolidin-1-yl)ethan-1-one], for which the “LDLR Fold (relative LDLR protein levels)” value in test [1] is given as 0.9 Fold. Consider `Cc1ccc(-c2nnc(N3CCN(C(=O)CN4C(=O)c5ccccc5C4=O)CC3)c3ccccc23)cc1` [Compound 36, 2-(2-{4-[4-(4-methylphenyl)phthalazin-1-yl]piperazin-1-yl}-2-oxoethyl)-2,3-dihydro-1H-isoindole-1,3-dione], for which the “LDLR Fold (relative LDLR protein levels)” value in test [1] is reported as 0.8 Fold. As to `Cc1ccc(-c2nnc(N3CCN(C(=O)Cn4c(=O)n(C)c5ccccc54)CC3)c3ccccc23)cc1` [Compound 37, 1-methyl-3-(2-{4-[4-(4-methylphenyl)phthalazin-1-yl]piperazin-1-yl}-2-oxoethyl)-2,3-dihydro-1H-1,3-benzodiazol-2-one], the “LDLR Fold (relative LDLR protein levels)” value in test [1] is listed as 1.0 Fold. `O=C(CN1C(=O)c2ccccc2C1=O)N1CCN(c2nnc(-c3ccccc3)c3ccccc23)CC1` [Compound 38, 2-{2-oxo-2-[4-(4-phenylphthalazin-1-yl)piperazin-1-yl]ethyl}-2,3-dihydro-1H-isoindole-1,3-dione]: the “LDLR Fold (relative LDLR protein levels)” value in test [1] is reported as 0.9 Fold.

In the case of `Cc1ccc(-c2nnc(N3CCN(C(=O)c4ccco4)CC3)c3ccccc23)cc1` [Compound 39, 1-[4-(furan-2-carbonyl)piperazin-1-yl]-4-(4-methylphenyl)phthalazine], the “LDLR Fold (relative LDLR protein levels)” value in test [1] is recorded as 0.9 Fold. Turning to `CC1CCN(CC(=O)N2CCN(c3nnc(-c4ccccc4)c4ccccc34)CC2)CC1` [Compound 40, 2-(4-methylpiperidin-1-yl)-1-[4-(4-phenylphthalazin-1-yl)piperazin-1-yl]ethan-1-one], the “LDLR Fold (relative LDLR protein levels)” value in test [1] came out at 0.9 Fold. Turning to `c1ccc2c(N3CCN(Cc4ccc5c(c4)OCO5)CC3)nnc(Cc3ccncc3)c2c1` [Compound 41, 1-{4-[(2H-1,3-benzodioxol-5-yl)methyl]piperazin-1-yl}-4-[(pyridin-4-yl)methyl]phthalazine], the “LDLR Fold (relative LDLR protein levels)” value in test [1] is given as 0.7 Fold. Still for that read-out and setting: next, `O=C(CN1CCOCC1)N1CCN(c2nnc(-c3ccccc3)c3ccccc23)CC1` [Compound 43, 2-(morpholin-4-yl)-1-[4-(4-phenylphthalazin-1-yl)piperazin-1-yl]ethan-1-one]: 0.9 Fold; `Cc1cc(C(=O)N2CCCC(C(=O)Nc3ccccc3)C2)c2ccccc2n1` (stereo not shown) [Compound 51, 1-(2-methylquinoline-4-carbonyl)-N-phenylpiperidine-3-carboxamide]: 1.2 Fold.

The values above are taken from patent US12419888B2, “Methods of treating elevated plasma cholesterol” (INSTITUT DE CARDIOLOGIE DE MONTREAL, priority 2020, dated 2025).
